In ChEMBL document CHEMBL1201862, “PubChem BioAssay data set” (2004):
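Exposure lasted 48 hours, with cells grown in 96-well plates and compounds tested at five concentrations. GI50 marks 50% less growth.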 Activity calls are given as the source filed them. Rule as the data show it: active = GI50 up to about 1.1 µM and inactive = higher.

Legend:
Assay in all cases: NCI tumour cell line growth inhibition, 48 h
SF-539 = tested on: SF-539
OVCAR-4 = tested on: OVCAR-4
SK-MEL-28 = tested on: SK-MEL-28
U-251 = tested on: U-251
A549 = tested on: A549
NCI-H460 = tested on: NCI-H460
HT-29 = tested on: HT-29
LOX IMVI = tested on: LOX IMVI
HL-60 = tested on: HL-60
KM12 = tested on: KM12
TK-10 = tested on: TK-10
HCT-15 = tested on: HCT-15
HCC 2998 = tested on: HCC 2998
RXF 393 = tested on: RXF 393
NCI-H226 = tested on: NCI-H226
COLO 205 = tested on: COLO 205
SR = tested on: SR
HOP-62 = tested on: HOP-62

SMILES	GI50 (SF-539)	GI50 (OVCAR-4)	GI50 (SK-MEL-28)	GI50 (U-251)	GI50 (A549)	GI50 (NCI-H460)	GI50 (HT-29)	GI50 (LOX IMVI)	GI50 (HL-60)	GI50 (KM12)	GI50 (TK-10)	GI50 (HCT-15)	GI50 (HCC 2998)	GI50 (RXF 393)	GI50 (NCI-H226)	GI50 (COLO 205)	GI50 (SR)	GI50 (HOP-62)
O=[N+]([O-])c1cc([N+](=O)[O-])c(/C=C/c2ccc(Cl)c(Cl)c2)cc1/C=C/c1ccc(Cl)c(Cl)c1	21.9 µM (inactive)	38.7 µM (inactive)	26.5 µM (inactive)	33 µM (inactive)	41.3 µM (inactive)	30.4 µM (inactive)	28.1 µM (inactive)	23.7 µM (inactive)	22.2 µM (inactive)	18.5 µM (inactive)	52.5 µM (inactive)	21.2 µM	30.3 µM (inactive)	20.8 µM (inactive)	24.6 µM (inactive)	18.7 µM (inactive)	–	–
COC(=O)c1csnn1	> 100 µM (inactive)	–	> 100 µM (inactive)	> 100 µM (inactive)	> 100 µM (inactive)	> 100 µM (inactive)	> 100 µM (inactive)	> 100 µM (inactive)	> 100 µM (inactive)	> 100 µM (inactive)	> 100 µM (inactive)	> 100 µM	> 100 µM (inactive)	–	> 100 µM (inactive)	> 100 µM (inactive)	> 100 µM (inactive)	> 100 µM (inactive)
COc1ccc(CC2c3c(cc(OC)c(OC)c3OC)CCN2C)cc1OC (stereo unspecified)	> 100 µM (inactive)	78.7 µM (inactive)	> 100 µM (inactive)	> 100 µM (inactive)	> 100 µM (inactive)	> 100 µM (inactive)	> 100 µM (inactive)	–	–	> 100 µM (inactive)	> 100 µM (inactive)	> 100 µM	> 100 µM (inactive)	–	–	–	–	> 100 µM (inactive)
CC(=O)NC(CCCNC(=O)NCCCl)C(=O)NCc1ccccc1 (stereo unspecified)	> 100 µM (inactive)	> 100 µM (inactive)	> 100 µM (inactive)	> 100 µM (inactive)	> 100 µM (inactive)	> 100 µM (inactive)	> 100 µM (inactive)	–	> 100 µM (inactive)	> 100 µM (inactive)	> 100 µM (inactive)	> 100 µM	> 100 µM (inactive)	> 100 µM (inactive)	> 100 µM (inactive)	> 100 µM (inactive)	> 100 µM (inactive)	> 100 µM (inactive)
CN1C/C(=C\C=C\c2ccccc2)C(=O)/C(=C/C=C/c2ccccc2)C1	> 100 µM (inactive)	> 100 µM (inactive)	> 100 µM (inactive)	> 100 µM (inactive)	> 100 µM (inactive)	> 100 µM (inactive)	> 100 µM (inactive)	> 100 µM (inactive)	–	> 100 µM (inactive)	> 100 µM (inactive)	> 100 µM	> 100 µM (inactive)	> 100 µM (inactive)	> 100 µM (inactive)	> 100 µM (inactive)	–	> 100 µM (inactive)
C/C(=N\NC(C)(C)C)c1sc(-c2nc(C)c(/C(C)=N/NC(C)(C)C)s2)nc1C	> 100 µM (inactive)	> 100 µM (inactive)	> 100 µM (inactive)	> 100 µM (inactive)	> 100 µM (inactive)	–	> 100 µM (inactive)	> 100 µM (inactive)	> 100 µM (inactive)	–	–	> 100 µM	> 100 µM (inactive)	> 100 µM (inactive)	> 100 µM (inactive)	> 100 µM (inactive)	> 100 µM (inactive)	–
CC1=C(C(=O)CC(=O)C(=O)Nc2cc(C)ccc2C)Sc2ccccc2N1	> 100 µM (inactive)	> 100 µM (inactive)	> 100 µM (inactive)	> 100 µM (inactive)	> 100 µM (inactive)	> 10 µM (inactive)	> 100 µM (inactive)	> 100 µM (inactive)	> 100 µM (inactive)	> 100 µM (inactive)	> 100 µM (inactive)	> 100 µM	> 100 µM (inactive)	> 100 µM (inactive)	> 100 µM (inactive)	–	–	> 100 µM (inactive)
CCOP(=O)(OCC)/C(C#N)=C/c1ccc[nH]1	> 100 µM (inactive)	> 100 µM (inactive)	> 100 µM (inactive)	> 100 µM (inactive)	> 100 µM (inactive)	> 100 µM (inactive)	> 100 µM (inactive)	> 100 µM (inactive)	> 100 µM (inactive)	> 100 µM (inactive)	74.6 µM (inactive)	> 100 µM	–	> 100 µM (inactive)	> 100 µM (inactive)	> 100 µM (inactive)	> 100 µM (inactive)	> 100 µM (inactive)
Cc1ccc(SC2C(C)(C)N(C(C)C)P2(=O)N(C(C)C)C(C)C)cc1 (stereo unspecified)	> 88.9 µM (inactive)	> 64.9 µM (inactive)	> 95.7 µM (inactive)	> 59 µM (inactive)	> 45 µM (inactive)	27.5 µM (inactive)	26 µM (inactive)	28 µM (inactive)	14.7 µM (inactive)	> 100 µM (inactive)	> 100 µM (inactive)	62.8 µM	64.3 µM (inactive)	–	> 100 µM (inactive)	> 43.7 µM (inactive)	14.2 µM (inactive)	> 100 µM (inactive)
